In ChEMBL document CHEMBL1128936, “Protein-ligand interactions. 6 nicotinic acetylcholine receptor agonist activity of isoquinoline alkaloids” (Bioorg Med Chem Lett, 1996) one finds Kd1, Kd2 and Bmax data, which are given here for five molecules.

Structures are written as SMILES. Values joined by “and” are separate entries in the source; they are usually repeats but may differ in a detail not shown here. Equal entries are not always repeated.

The target in assay [1] is T1, Acetylcholine receptor subunit delta (Torpedo californica) (UniProt P02718).
T1 sequence (whole entry): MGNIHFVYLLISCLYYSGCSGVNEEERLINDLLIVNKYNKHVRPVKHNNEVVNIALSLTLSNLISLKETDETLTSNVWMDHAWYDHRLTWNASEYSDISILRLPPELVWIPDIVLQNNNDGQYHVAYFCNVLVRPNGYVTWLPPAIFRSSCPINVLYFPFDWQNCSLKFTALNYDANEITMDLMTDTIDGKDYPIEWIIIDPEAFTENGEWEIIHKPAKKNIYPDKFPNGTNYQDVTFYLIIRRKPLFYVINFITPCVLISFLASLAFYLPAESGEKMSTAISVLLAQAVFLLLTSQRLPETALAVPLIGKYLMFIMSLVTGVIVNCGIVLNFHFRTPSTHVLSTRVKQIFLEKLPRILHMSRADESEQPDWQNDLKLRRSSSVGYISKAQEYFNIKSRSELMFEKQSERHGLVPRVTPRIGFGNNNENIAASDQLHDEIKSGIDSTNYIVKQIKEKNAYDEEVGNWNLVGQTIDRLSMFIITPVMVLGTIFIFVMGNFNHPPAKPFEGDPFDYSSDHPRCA
As to the kind of experiment: Compound was tested for its binding affinity against nicotinic acetylcholine receptor by fluorimetry assay. Conditions: torpedo fuscomaculata.

The target in assay [2] is T1, Acetylcholine receptor subunit delta (Torpedo californica). As to the kind of experiment: Compound was tested for its binding affinity against nicotinic acetylcholine receptor by spectrometry assay. The note with it: torpedo fuscomaculata.

In assay [1], `CC(=O)OCC[N+](C)(C)C` gave a Kd1 of 0.12 µM and a Kd2 of 2.3 µM. In assay [2], this molecule gave a Kd1 of 0.18 µM and a Kd2 of 3 µM.

Turning to `COc1ccc2cc3[n+](cc2c1OC)CCc1cc2c(cc1-3)OCO2`, in assay [1], the Bmax was found to be 0.31 µM and the Kd1 turned out to be 0.77 µM. For the same molecule, in assay [2], the Bmax turned out to be 2.14 µM; the Kd1 amounted to 0.84 µM; the Kd2 is 27 µM and 34 µM.

As for `COc1cc2c3cc1Oc1cc(ccc1O)C[C@@H]1c4c(cc(OC)c(O)c4Oc4ccc(cc4)C[C@@H]3N(C)CC2)CC[N+]1(C)C`, the Kd1 in assay [1] amounted to 0.05 µM; in assay [2] it was 0.03 µM. The Kd2 in assay [1] amounted to 11.4 µM; in assay [2] it was 8 µM.

In the case of `c1ccc2cnccc2c1`, in assay [1], the Bmax came out at 0.31 µM, the Kd1 turned out to be 3.1 µM and the Kd2 was 49 µM. Besides, in assay [2], the Bmax amounted to 1.86 µM, the Kd1 came out at 3.3 µM and the Kd2 amounted to 51.6 µM.

Turning to `COc1ccc(Cc2nccc3cc(OC)c(OC)cc23)cc1OC`, in assay [1], the Bmax came out at 0.27 µM and the Kd1 stood at 1.7 µM. In addition, in assay [2], the Bmax came out at 2.07 µM; the Kd1 was determined as 2.4 µM; the Kd2 was 31 µM and 29 µM.
